We go through seven molecules from ChEMBL document CHEMBL1126077 (J Med Chem, 1992).

SMILES strings stand for the structures. pIC50: −log10 of the molar value.

As usually defined, the inhibition is the change of the read-out against control, counted positive when it falls. For orientation: pIC50 means −log10 of the IC50, conventionally taken in molar units. Higher therefore signals a low IC50. As a reminder, the Inhibition is the relative decrease from the control value, in per cent. Low readings indicate little suppression, high ones strong suppression.

For series [1], the target named is T1, Cholesterol side-chain cleavage enzyme, mitochondrial (Bos taurus, UniProt P00189).
T1 sequence (P00189 whole entry): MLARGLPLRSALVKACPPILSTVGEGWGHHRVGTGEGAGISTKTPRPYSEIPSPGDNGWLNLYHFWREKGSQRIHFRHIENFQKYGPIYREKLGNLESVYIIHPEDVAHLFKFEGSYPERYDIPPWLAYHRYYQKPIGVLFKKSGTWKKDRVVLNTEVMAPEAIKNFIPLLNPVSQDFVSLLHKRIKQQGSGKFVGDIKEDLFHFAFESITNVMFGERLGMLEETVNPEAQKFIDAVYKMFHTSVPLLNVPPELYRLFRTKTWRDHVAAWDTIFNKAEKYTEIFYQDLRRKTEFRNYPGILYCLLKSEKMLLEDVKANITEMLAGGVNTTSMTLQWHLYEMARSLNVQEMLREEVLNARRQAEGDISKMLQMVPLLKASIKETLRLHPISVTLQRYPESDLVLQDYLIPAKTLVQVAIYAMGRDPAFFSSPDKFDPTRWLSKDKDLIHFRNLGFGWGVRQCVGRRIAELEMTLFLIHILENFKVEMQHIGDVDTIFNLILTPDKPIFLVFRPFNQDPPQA
The series can be described thus: Inhibition of bovine adrenal desmolase at 25 uM. As to conditions: cattle; for Inhibition: 25 µM.

For the next series, the target named is T2, Aromatase (Homo sapiens, UniProt P11511).
T2 sequence (P11511 whole entry): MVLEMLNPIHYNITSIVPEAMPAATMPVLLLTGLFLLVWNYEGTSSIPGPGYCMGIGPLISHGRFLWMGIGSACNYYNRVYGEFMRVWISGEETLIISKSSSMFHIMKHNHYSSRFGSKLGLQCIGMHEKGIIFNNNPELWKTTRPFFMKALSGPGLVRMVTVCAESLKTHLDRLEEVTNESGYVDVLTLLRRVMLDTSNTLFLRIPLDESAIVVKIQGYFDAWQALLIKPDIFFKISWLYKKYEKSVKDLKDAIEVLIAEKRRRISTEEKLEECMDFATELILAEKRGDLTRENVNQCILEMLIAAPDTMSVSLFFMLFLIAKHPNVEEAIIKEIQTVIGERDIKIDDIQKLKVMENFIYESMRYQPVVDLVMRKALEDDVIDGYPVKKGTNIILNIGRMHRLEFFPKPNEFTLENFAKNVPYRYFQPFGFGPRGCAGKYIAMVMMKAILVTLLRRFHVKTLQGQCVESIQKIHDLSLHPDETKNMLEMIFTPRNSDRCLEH

The target of series [2] is T1, Cholesterol side-chain cleavage enzyme, mitochondrial. The series is described as follows: Inhibition of bovine adrenal desmolase.

Description for Aromatase: Concentration inhibiting Aromatase

Turning to `CC[C@@]1(c2ccc(N)cc2)CCC(=O)NC1=O`, the inhibition at 25 µM in series [1] stood at 36%.

Take `CC[C@]1(c2ccc(N)cc2)CCC(=O)NC1=O`: in series [1], the inhibition at 25 µM stood at 67%.

The molecule `Nc1ccc(C2(C3CCCC3)CCC(=O)NC2=O)cc1` (centres undefined) had an inhibition at 25 µM in series [1] of 59%. For the same molecule, on Aromatase, the pIC50 is 5.92.

As for `Nc1ccc(C2(C3CCCCC3)CCC(=O)NC2=O)cc1` (single isomer, unassigned; (+)), the pIC50 was 4.09 in series [2] and 6.82 at Aromatase. In series [1], this molecule gave an Inhibition of 19%.

In series [1], `Nc1ccc(C2(C3CCCCC3)CCC(=O)NC2=O)cc1` (single isomer, unassigned; (-)) had an Inhibition of 39%. Besides, the pIC50 against Aromatase was 5.34.

Turning to `Nc1ccc(C2(C3CCCCC3)CCC(=O)NC2=O)cc1` (stereo in doubt; 2), the figures for the pIC50 (in series [2]; against Aromatase) were 4.17 and 6.52, respectively. Also, in series [1], the Inhibition came out at 31%.

In turn, `CCC1(c2ccc(N)cc2)CCC(=O)NC1=O` (centres undefined) [AMINOGLUTETHIMIDE] showed a pIC50 in series [2] of 4.54. In series [1], the inhibition at 25 µM turned out to be 57%.
